How the values were obtained:
[1] = tested on: CD34+ brown adipocyte progenitor cells; experiment: Multiplexed TaqMan real-time PCR of UCP1 and PPARγ2 mRNA (normalized to cyclophilin A) to quantify differentiation of CD34+ cells into brown adipocytes; assay type: cell-based, human; conditions: for differentiation of brown adipocyte progenitor cells into brown adipocytes, as indicated by expression of UCP1 and PPARγ2: in vitro, first screen at 10 μM, actives retested at 1 nM to 50 μM
Text: A robust method, previously disclosed, was used for detection of CD34+ cell differentiation into brown adipocytes by simultaneously quantifying mRNA species corresponding to the brown adipocyte marker UCP1, the adipocyte marker PPARγ2, and the “housekeeping” gene cyclophilin A which was used as the internal control.
This method permits analysis of a large number of samples to identify agents that enhance the differentiation of CD34+ cells into brown adipocytes. When differentiated into brown adipocytes, CD34+ cells express much higher levels of UCP1 and PPARγ2 mRNA for a given level of cyclophilin A. UCP1 and PPARγ2 mRNA levels normalized to cyclophilin A mRNA levels give an indication of the level of differentiation of the CD34+ cells into brown adipocytes, independent of the total number of cells in the sample.
Quantification of UCP1, PPARγ2 and cyclophilin A mRNA by multiplexed TaqMan real-time PCR was thus used to quantify differentiation of the CD34+ cells into brown adipocytes.
UCP1 is the key protein in brown adipocytes responsible for uncoupled respiration and is also highly specific for brown adipocyte differentiation. It is expressed exclusively by fully differentiated brown adipocytes and not by the CD34+ progenitor cells. We used a real-time semi-quantitative RT PCR-based assay for detection of UCP1 expression, in order to screen for brown adipocyte recruiters. […] The assay has the added advantage of allowing light microscopic visualization of the distinct morphological changes accompanying differentiation into brown adipocytes. This serves as further confirmation of differentiation.
(§1) Cells were seeded at 10,000 per cm^2 (48-well tissue culture, Chemglass #CLS-3500-048), cultured until confluency (1-4 days) at 37° C. in Endothelial cell growth medium-2 (EGM2) (BulletKit growth medium, Lonza #CC-3162) and until differentiation (6-12 more days). After 1-4 days in EGM2 media the cells were incubated with test agents (or positive controls) for 2-3 days (from day −3 or −2 to day 0). Rosiglitazone (1 μM) and rhBMP7 (6.3 nM) were used as reference agents (positive controls). Then (on day 0) the culture media (containing the test agents or positive controls) was removed, and minimal adipogenic medium (MDM) was added and the cells were left to differentiate of 6-12 days. The MDM media is a modification of the adipogenic media described by Rodriguez et al., and contains: DMEM/Ham's F-12 50/50 Mix (3.151 g/1, 17.5 mM D-glucose, 3.651 g/l L-glutamine) (Cellgro #10-090-CV), 5 μg/ml (0.86 μM) insulin, 1 μM dexamethasone, 100 μM 3-isobutyl-1-methylxanthine, 0.2 nM 3,3′,5-triiodo-L-thyronine, 10 μg/ml (127 nM) transferrin, and 1% penicillin-streptomycin. Adipocyte scores were determined by light microscopy and defined as the number of cells, on a per well basis, that contain multilocular lipid droplets, at the end of the differentiation of the cells, approximately 6 to 12 days following the end of compound treatment and switch into MDM media.
Total RNA was prepared from cells using PureLink RNA Isolation Kit (Invitrogen #12183-016). Alternatively, cells were simply lyzed by freezing (−80° C.). First strand cDNA were synthesized using the High Capacity cDNA Reverse Transcription kit (Applied Biosystems, Foster City, Calif.) and random primers.
Quantitative real-time PCR was performed using an Applied Biosystems StepOnePlus™ instrument, TaqMan Gene Expression Master Mix (Applied Biosystems #4369016), and custom TaqMan gene expression probes and primers for human uncoupling protein-1 “UCP1” (GenBank NM_021833) and for human peptidylprolyl isomerase A “cyclophilin A” (GenBank NM_021130).
Cyclophilin A was used as a control to account for any variations due to the efficiency of reverse transcription. Arbitrary units were determined by normalizing target mRNA levels to cyclophilin A mRNA levels (based on Cts).

[2] = tested on: CD34+ cells; experiment: Light microscopy of CD34+ cells for brown adipocyte differentiation (multilocular lipid-containing cells); assay type: cell-based, human; conditions: CD34+ cells 6 days following the end of compound treatment and switch into MDM media
Procedure: as §1
Pictures of cells were taken using a hand-held digital camera (Nikon Coolpix 950) and inverted microscope (Nikon TMS) used for cell culture observations; images were optimized using Paint.net version 4.0 functions for Auto-Level Brightness and Contrast.

[3] = tested on: CD34+ cells; experiment: Quantification of UCP1 protein by fluorescence immunohistochemistry (IHC); assay type: cell-based, human
Procedure: Culturing and differentiation of CD34+ cells into brown adipocytes were performed using adipogenic differentiation medium lacking (Minimal Differentiation Medium, MDM) or containing 1 μM rosiglitazone (Reference Differentiation Medium, RDM). After 15 days of differentiation cells were fixed with 4% Paraformaldehyde PBS pH 7.4, and incubated with a UCP1 antibody (Abcam ab23841) and Alexafluor 488 goat anti-rabbit antibody to quantify relative UCP1 levels (green) according to standard protocols. Prior to fixation of cells, nuclei were labeled with 5 μM DAPI (blue) for 10 minutes. Each treatment condition was evaluated in triplicate in a 96-well plate corresponding to approximately 360-480 cells for each data point in total. The InCell 1000 Developer Toolbox software was used to develop an automated cell detection script to measure UCP1 signal intensity, using the nuclei and cytoplasm detection algorithms. As a readout, total intensity of UCP1 signal within the cell was used, normalized to cell number.

[4] = tested on: DIO mice; experiment: DIO mouse study of metabolic health, once-daily oral gavage for 28 to 56 days; assay type: in vivo, C57Bl/6 mice; conditions: oral gavage once a day, bezafibrate 60 mg/kg, oxaprozin 50 mg/kg, vs vehicle
Procedure: Obesity and insulin resistance, an early stage in the development of type 2 diabetes (or pre-diabetes), was induced in C57Bl/6 mice by feeding the mice with a high fat diet (Research diet, Cat #D12492, 60/a fat kcal) for 12 weeks starting at 6 weeks of age. The mice were maintained at 22-23° C. with abundant bedding material, maintaining the animals in an environmental temperature close to their thermoneutrality, starting 2 weeks prior to the dosing period and for the full dosing period with a 12 h/12 h light/dark cycle.
Mice were dosed once per day by oral gavage (200 μl per mouse), first for 3 days with the vehicle (PBS+0.5% CMC+0.1% Tween-80) as acclimation for running into the study, then with either vehicle alone or testing material dissolved in the vehicle for […] (4 to 8 weeks).
Body weight was recorded every 3 days, body composition (fat and lean mass with EchoMRI) was assessed at the end of the study (University of Cincinnati Mouse Metabolic Phenotyping Center), blood glucose level (measured with a glucometer) was monitored 3-5 days before (baseline) and at the end of the dosing period.
At the end of the dosing period, animals were fasted for 6 hours and euthanized by CO2, blood was collected, and plasma was isolated and saved at −20° C. Plasma glucose, insulin and leptin levels were assessed 3-5 days before (baseline) and at the end of the dosing period (mice were fasted for 6 hours before all plasma collection) (University of Cincinnati Mouse Metabolic Phenotyping Center). Insulin sensitivity was determined using the homeostasis model assessment of insulin resistance (HOMA-IR). HOMA-IR=(plasma insulin [microIU/ml] x plasma glucose [mM])/22.5.
The mice were maintained on a high fat diet (60% calories from fat) throughout the study. An overnight fast was performed the last night of the study in preparation for glucose tolerance testing.

CCCN(CCC)S(=O)(=O)c1ccc(C(=O)O)cc1 [probenecid, Probenecid]
differentiation of brown adipocyte progenitor cells into brown adipocytes, as indicated by expression of UCP1 and PPARγ2 [1]: promote the differentiation of brown adipocyte progenitor cells into brown adipocytes | brown adipocyte formation by light microscopy [2]: promote brown adipocyte formation | agents identified by quantification of UCP1 protein by fluorescence IHC [3]: identified using this technique

CC(C)(Oc1ccc(CCNC(=O)c2ccc(Cl)cc2)cc1)C(=O)O [bezafibrate, 2-(4-{2-[(4-chlorobenzoyl)amino]ethyl}phenoxy)−2-methylpropanoic acid]
differentiation of brown adipocyte progenitor cells into brown adipocytes, as indicated by expression of UCP1 and PPARγ2 [1]: promote the differentiation of brown adipocyte progenitor cells into brown adipocytes | brown adipocyte formation by light microscopy [2]: promote brown adipocyte formation | body fat mass ([4]; MRI): significant decreases | body weight [4]: significant decreases | glycemia [4]: significant decreases | insulin resistance index (HOMA-IR) [4]: significant decreases | plasma insulin [4]: significant decreases | plasma leptin [4]: significant decreases

O=C(O)c1cc(-c2ccc(F)cc2F)ccc1O [diflunisal, Diflunisal]
differentiation of brown adipocyte progenitor cells into brown adipocytes, as indicated by expression of UCP1 and PPARγ2 [1]: promote the differentiation of brown adipocyte progenitor cells into brown adipocytes | brown adipocyte formation by light microscopy [2]: promote brown adipocyte formation | agents identified by quantification of UCP1 protein by fluorescence IHC [3]: identified using this technique

B1: BMP7: recombinant human BMP7 (rhBMP7), R&D Systems, reference agent (positive control) (protein, UniProt P18075 293-431, looked up)
Bone morphogenetic protein 7: STGSKQRSQNRSKTPKNQEALRMANVAENSSSDQRQACKKHELYVSFRDLGWQDWIIAPEGYAAYYCEGECAFPLNSYMNATNHAIVQTLVHFINPETVPKPCCAPTQLNAISVLYFDDSSNVILKKYRNMVVRACGCH
recruitment of brown adipocytes ([1]; CD34+ cells, rosiglitazone 1 μM, BMP7 6 nM (most effective individual concentrations), day −3 to d0): robustly increase the recruitment of brown adipocytes | response of the UCP1/PPARγ2 RT-PCR assay to positive controls ([1]; positive controls): appropriate dose-responsive behavior | brown adipocyte formation by light microscopy [2]: promote brown adipocyte formation

From patent US20230190689A1, “METHODS AND COMPOSITIONS FOR INDUCING BROWN ADIPOGENESIS” (ENERGESIS PHARMACEUTICALS, INC., priority 2020, published 2023)
